The assay has as its system Phospholipase A2 (Naja naja venom , Sigma). Put plainly: Inhibition of phospholipase A2 activity (release of 14C-arachidonic acid from phosphatidylcholine substrate). The format is biochemical. Conditions: at 20µM; mean ± standard deviation of triplicate samples; 37°C, pH 8.7, CaCl2 4mM. The method, then: Method For The Measurement of Inhibition of Phospholipase A2 Activity
Enzyme: Phospholipase A2 (Naja naja venom , Sigma)
Substrate: Diarachidoyl phosphatidylcholine (10.6mg) and α-1-palmitayl-2-[1-^14C]-arachidonyl phosphatidylcholine (0.5pCi; 52.9nCi/mMol) in 28ml of TrisHCl buffer = […], pH 8.7) ultrasonicated.
Assay: Incubations containing PLA2 (0.125ng) in Tris HC1 buffer (100mM, pH 8.7) and CaCl2 (4mM) were prepared on ice. Immediately prior to incubation at 37°C 5µl of DMSO or compound in DMSO were added. The final assay volume was 1.75ml. After 10 minutes incubation at 37°C 750pl of substrate was added, with mixing, and the incubation continued for a further 15 min. The reaction is terminated by placing on ice and adding 5m1 CHCl3:MeOH (2:1v/v).
The lower organic phase is remaved ahd stored under N2 at -20°C until analysed. Analysis is by 1-dimensional t.l.c. on polygram Sil G sheets in the solvent system: petroleum ether: diethyl ether: acetic acid (60:40:1, v/v). In this solvent system the phospholipid remains at the origin and the arachidonic acid has an approximate Rf. value of 0.36. The areas of interest are cut from the plates and their radioactivity determined by liquid scintillation counting.
All compounds are tested in triplicate.
Calculation: The radioactivity of the arachidonic acid is expressed as a percentage of the total dpm cut from the plate. The percentage inhibition of arachidonic acid release compared to that of the control is calculated after correction for the level of spontaneous release where: • x = % corrected mean arachidonic acid release in control • y = % corrected arachidonic acid release after inhibition [formula]
The nean of the triplicate sanples is calculated giving z ± standard deviation %.

Eight compounds from patent EP0207599A1, “Arachidonic acid analogues” (BEECHAM GROUP PLC, priority 1985, dated 1987) can be followed below.

For “6-(2-(1-Octynyl)pheny]-E-hex-5-en-1-oic acid [Example 2]”, the “Percent inhibition of phospholipase A2 at x µM concentration.” value (from here on “Percent inhibition of phospholipase A2”) came out at 76.2± 13.9 at 20µM %. Turning to “6-[2-(1-Octynyl)phenyl)hex-5-yn-1-oic acid [Example 23]”, the “Percent inhibition of phospholipase A2” value was 25.0± 19.0 at 20µM %. With `CCCCCC/C=C\c1ccccc1/C=C/CCCC(=O)O` [Example 3, 6-[2-(Z-1-Octenyl)phenyl]-E-hex-5-en-1-oic acid] the figure was 72.9± 10.3 at 20µM %; with `CCCCCCC#Cc1cccc(/C=C/CCCC(=O)O)c1` [Example 5, 6-[3-(1-Octynyl)phenyl]-E-hex-5-en-1-oic acid], 78.9± 4.7 at 20µM %.

`CCCCCCC#Cc1ccccc1C#CCCC(C(=O)O)C(=O)O` [Example 13, 2-(4-[2-(1-octynyl)phenyl]-but-3-ynyl)malonic acid.]: the “Percent inhibition of phospholipase A2” value was 23.1± 17.6 at 20µM %. In the case of `CCCCCC/C=C\c1ccccc1/C=C\CCC(C(=O)O)C(=O)O` [Example 15, 2-(4-[2-(Z)-1-Octenyl)phenyl-(Z)-but-3-enyl)malonic acid], the “Percent inhibition of phospholipase A2” value turned out to be 65.0± 17.0 at 20µM %.

On to `CCCCCCC#Cc1ccccc1C#CCCC(C(=O)O)C(=O)OC(C)(C)C` (centres unmarked) [Example 21, 2-(4-[2-(1-Octynyl)phenyl]-but-3-ynyl)malonic acid monotertbutyl ester], for which the “Percent inhibition of phospholipase A2” value is reported as 62.0± 4.4 at 20µM %. `CCCCCC/C=C\c1ccccc1/C=C\CCCC(=O)O` [Example 25, 6-[2-((Z)-1-octenyl)phenyl]-(Z)-hex-5-en-1-oic acid]: the “Percent inhibition of phospholipase A2” value amounted to 69.8± 8.3 at 20µM %.
